According to ChEMBL document CHEMBL4390680, “In silico study of M18 aspartyl amino peptidase (M18AAP) of Plasmodium vivax as an antimalarial drug target” (Bioorg Med Chem, 2019):

Experiment: Inhibition of Plasmodium vivax aminopeptidase-M18

pIC50 | Structure (SMILES)
6.155 | Oc1ccc(CCNc2c3ccccc3nc3ccccc23)cc1
5.959 | COc1ccc(CCNc2c3ccccc3nc3ccccc23)cc1
5.979 | COc1ccc(CNc2c3ccccc3nc3ccccc23)cc1OC
5.347 | COc1ccc(CCN(C)c2c3ccccc3nc3ccccc23)cc1OC
5.432 | Oc1ccc(CCCNc2c3ccccc3nc3ccccc23)cc1O
6.221 | COc1cccc(CCNc2c3ccccc3nc3ccccc23)c1
6.18 | COc1ccc(CCNc2ccnc3cc(Cl)ccc23)cc1OC
5.61 | COc1ccc(CCNc2c3ccccc3nc3ccccc23)cc1OC
5.658 | COc1ccc(CCCNc2c3ccccc3nc3ccccc23)cc1OC
6.301 | NCCNc1c2ccccc2nc2ccccc12
5.347 | COc1ccc(CCNc2cncc3ccccc23)cc1OC
6.522 | COc1cc(Br)c(CCNc2c3ccccc3nc3ccccc23)cc1OC

The next lines start with the compound.

Structure (SMILES) | pIC50
Cc1cccc2c(NCCc3ccc(O)c(O)c3)ccnc12 | 5.328
Oc1ccc(CCNC2CCN(Cc3ccccc3)CC2)cc1O | 5.187
O=c1ccn(CCNc2c3ccccc3nc3ccccc23)cc1OCc1ccccc1 | 5.328
Oc1ccc(CCNc2ccnc3ccccc23)cc1O | 5.409
CN(CCc1ccc(O)c(O)c1)c1ccnc2ccccc12 | 5.319
COc1ccc(CCN(C)c2ccnc3cc(Cl)ccc23)cc1OC | 5.24
COc1cc(Br)c(CCNc2c3c(nc4ccccc24)CCCC3)cc1OC | 5.522
COc1ccc(CCNC2CCN(Cc3ccccc3)CC2)cc1OC | 5.161
Oc1ccc(C2CCN(c3ccnc4ccccc34)CC2)cc1O | 5.887
Cc1c(OCc2ccccc2)c(=O)ccn1CCNc1c2ccccc2nc2ccccc12 | 5.398
Oc1ccc(C2CCN(c3ccnc4ccccc34)C2)cc1O (stereo unspecified) | 6.031
COc1ccc(C2CCN(c3ccnc4ccccc34)C2)cc1OC (stereo unspecified) | 5.699
Oc1cccc(CCNc2ccnc3ccccc23)c1O | 5.569
Oc1ccc(C2CCCN(c3ccnc4ccccc34)C2)cc1O (stereo unspecified) | 5.377
Oc1ccc(CCNc2ccnc3cc(Cl)ccc23)cc1O | 6.208
Oc1ccc(CCNc2c3c(nc4ccccc24)CCCC3)cc1O | 5.443
Oc1ccc(CCN2CCc3ccccc3C2)cc1O | 5.102
CCOc1ccc2nccc(NCCc3ccc(OC)c(OC)c3)c2c1 | 5.854
COc1cc(Br)c(CCNc2ccnc3ccccc23)cc1OC | 6.347
